“And” between values parts separate entries of the source, which are not always exact repeats. Equal values may be shown once.
Legend:
[1] = target: T1, DEspR on intact human cells (Homo sapiens, UniProt B0L3A2); experiment: hu6g8 binding to DEspR on intact human cells; conditions: done in triplicate
T1 construct: endogenous in cells; host or cells: intact human cells / 'DEspR+ human cells'
T1 sequence (B0L3A2 1-85): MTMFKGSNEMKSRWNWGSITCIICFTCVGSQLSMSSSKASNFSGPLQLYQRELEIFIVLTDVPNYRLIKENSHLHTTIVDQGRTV
Excerpt: FIGS. 17A-17C depict anti-DEspR-mab (hu6g8 mab). FIG. 17A depicts a diagram of DEspR, murine precursor mabs and humanized IgG and IgG4 mabs. Hu6g8 is notated as 6g8g7-hu-IgG4 raised against epitope 2, spanning the putative binding domain.
Described herein is the development, characterization, and validation of a fully humanized anti-DEspR mAb with a S228P hinge-stabilized IgG4/kappa FC region, designated herein as hu-6g8 or […]. The hu-6g8 was designed for high binding affinity to DEspR+ human cells and inhibition of activated neutrophil survival. hu-6g8 is reactive in all species, having identical epitopes in human, primates and rodents, which facilitates preclinical and clinical studies using the therapeutic lead. […] (FIG. 6). Through recombinant DNA technology, hu-6g8 was designed with optimal biophysical properties via: a) avoidance of T-cell epitopes for low immunogenicity—‘deimmunized’, b) optimization of heavy and light chain interactions for stability of variable domains, and c) exclusion of destabilizing post-translational modification sites [deamidation, oxidation, acid-lability, inappropriate N-glycosylation, isomerization and pyroglutamate formation].
Described herein are the advantages of anti-DEspR mAb targeted AECs. DEspR, the dual endothelin1/signal peptide receptor,^9 is a validated target on human activated neutrophils and NETs. […]

[2] = system: chronic kidney disease in Tg25+ male rats; experiment: CKD in Tg25+ male rats fed a HSD; format: in vivo, rat; conditions: hu-6g8 3 mg/kg IV at D0, D7, D14 and D21, Mean ± SD
[3] = PK study in Panc1 xenograft mice; format: in vivo; conditions: 15 mg/kg i.v. (n=3)
[4] = system: Panc1-cancer stem cell pancreatic carcinomatosis xenograft; experiment: CSC-derived pancreatic carcinomatosis xenograft tumor model in nude rats, comorbidities; format: in vivo, rat; conditions: treatment start 3 weeks after Panc1-CSC injection; vs untreated
Excerpt: FIG. 39 depicts a representative image of control untreated tumor rat (left panel) and ABTM-468 treated rat (right panel). Control rat was euthanized due to distress, treated rat was euthanized to obtain age- and tumor-duration-matched tumors. The xenograft tumor model was developed from Panc1-cancer stem cells injected into the peritoneal space 3 weeks prior to the start of treatment. T, tumors; GB, gall bladder.

hu-6g8: fully humanized anti-DEspR mAb with a S228P hinge-stabilized IgG4/kappa FC region
EC50 [1]: < 5 nM and 4.2 nM | Albuminuria ([2]; D14): 217 ± 87 mg/kg/day | Creatinine Clearance ([2]; D14): 279 ± 82 µL/min | UACR (urinary albumin/urinary creatinine ratio) ([2]; D14): 8309 ± 3731 | Urinary Exosome Excretion ([2]; D14): 771 ± 220 mg/kg/day | Albuminuria ([2]; D28): 164.8 ± 86 mg/kg/day | Creatinine Clearance ([2]; D28): 268 ± 30 µL/min | UACR (urinary albumin/urinary creatinine ratio) ([2]; D28): 5567 ± 2210 | Urinary Exosome Excretion ([2]; D28): 651 ± 191 mg/kg/day | half-life [3]: 40.8 h | cancer comorbidities (gut ischemia, ascites, gut dysfunction) [4]: reduced gut ischemia, serous or hemorrhagic ascites, distended gut, and ischemic-hemorrhagic gut (black gut) and gut dysfunction

From US10849966B2, “Methods for treating netosis and neutrophil activation” (TRUSTEES OF BOSTON UNIVERSITY, priority 2017, dated 2020)
